{"source": "paper PMC4875962", "about": "(Clinical Pharmacokinetics, 2015)", "key": {"[1]": {"tested_on": "Metabolic CYP enzymes", "settings": "cited from earlier work"}, "[2]": {"tested_on": "Transporters", "settings": "cited from earlier work"}, "[3]": {"settings": "after multiple doses; cited from earlier work"}, "[4]": {"tested_on": "platelet aggregation", "settings": "day 2 ratio (90 % CI 68.20–71.62); data on file"}}}
{"smiles": "CCCCc1oc2ccc(NS(C)(=O)=O)cc2c1C(=O)c1ccc(OCCCN(CCCC)CCCC)cc1", "note": "[Dronedarone]", "values": [{"measurement": "Metabolic CYP enzymes inhibited", "setting": "[1]", "result": "Moderate 3A4"}, {"measurement": "Transporters inhibited", "setting": "[2]", "result": "P-gp"}]}
{"smiles": "COc1ccc2nc([S@@+]([O-])Cc3ncc(C)c(OC)c3C)[nH]c2c1", "note": "[Esomeprazole]", "values": [{"measurement": "Metabolic CYP enzymes inhibited", "setting": "[1]", "result": "2C9, 2C19 (competitive)"}, {"measurement": "gastric pH", "setting": "[3]", "result": "approximately 5"}]}
{"smiles": "CC(=O)N1CCN(c2ccc(OCC3COC(Cn4ccnc4)(c4ccc(Cl)cc4Cl)O3)cc2)CC1", "note": "(stereo not shown) [Ketoconazole]", "values": [{"measurement": "Metabolic CYP enzymes inhibited", "setting": "[1]", "result": "Strong 3A4; weak 2C8, 2C19"}, {"measurement": "Transporters inhibited", "setting": "[2]", "result": "P-gp"}]}
{"smiles": "COc1ccc2cc([C@H](C)C(=O)O)ccc2c1", "note": "[Naproxen]", "values": [{"measurement": "baseline-corrected ratio for platelet aggregation", "setting": "[4]", "result": 69.89, "unit": "%"}]}
{"smiles": "C=C[C@H]1C[N@@]2CC[C@H]1C[C@@H]2[C@@H](O)c1ccnc2ccc(OC)cc12", "note": "[Quinidine]", "values": [{"measurement": "Metabolic CYP enzymes inhibited", "setting": "[1]", "result": "Strong 2D6"}, {"measurement": "Transporters inhibited", "setting": "[2]", "result": "P-gp; OCT2"}]}
{"smiles": "CO[C@H]1/C=C/O[C@@]2(C)Oc3c(C)c(O)c4c(O)c(c(/C=N/N5CCN(C)CC5)c(O)c4c3C2=O)NC(=O)/C(C)=C\\C=C\\[C@H](C)[C@H](O)[C@@H](C)[C@@H](O)[C@@H](C)[C@H](OC(C)=O)[C@@H]1C", "note": "[Rifampin]", "values": [{"measurement": "Transporters induced", "setting": "[2]", "result": "P-gp"}]}
